We go through one compound from patent US20210330756A1, “Acetylation of Miro1” (University of South Carolina, priority 2020, published 2021).

Each structure is given as a SMILES string.

The subject of test [1] is sciatic nerve axonal mitochondria. Description: In vivo imaging of axonal mitochondrial transport in sciatic nerve. On the set-up: species or system mouse. The method, then:
Together, these experiments indicate that HDAC6 activity impacts axonal mitochondrial transport in vitro and in vivo.
Sciatic nerves were exposed in live, isofluorane-anaesthetized animals (female C57BL6/J mice aged 41-42 d after birth) as previously reported (Gibbs et al., 2016; Sleigh and Schiavo, 2016). Briefly, 10-μ1 glass micropipettes (Drummond Scientific; 5-000-1001-X10) were pulled (Mohan et al., 2015) and used to inject 2 μl of 1.5 mM TubA or DMSO (Sigma-Aldrich; D2650) vehicle control in sterile saline (0.9% wt/vol) into the proximal aspect of the exposed sciatic nerve. 2 μM tetramethylrhodamine, ethyl ester, perchlorate (Thermo Fisher Scientific; T669), and 0.1% (wt/vol) bromophenol blue (Sigma-Aldrich; B5525) were included in the injected solution to label mitochondria and confirm successful injection beneath the perineurium, respectively.
Body temperature was maintained using a heat pad during surgery and drug incubation. Sciatic nerves were imaged from 20 to 90 min after injection using an inverted LSM 780 laser scanning microscope (Zeiss) Plan-Apochromat 63×/1.4 NA Oil DIC M27 objective within an environmental chamber prewarmed and set to 37° C. An area containing labeled axons was selected and imaged for 444-1,000 s at 100×digital zoom every ˜4 s (1,024×1,024 pixels, 0.5-μs pixel dwell time, 1% laser power). Four animals were imaged per day (two per treatment). Image series were converted into AVI files, and mitochondrial dynamics were assessed using Kinetic Imaging Software. Mitochondria were included in analyses when they could be tracked for at least five consecutive frames. At least 10 mitochondria (mean of 49.1) across at least three axons (mean of 4.38) per animal were tracked, and all analyses were performed blinded to treatment.

Test [2] has as its system growth cones of DRG neurons. Put plainly: Growth cone retraction after bath-applied growth inhibitors. Particulars: 10 μM TubA. The class given is cell-based, rat. From the text: MAG and CSPGs are more often tested as surface-bound substrates than with the bath applications used here. Thus, we tested whether bath application of growth inhibitors would cause growth cone retraction in a manner similar to surface-bound inhibitors. […] RhoA activation is a well-known downstream mediator for the growth-inhibitory effects of both MAG and CSPGs (Fujita and Yamashita, 2014), so we tested whether the RhoA/ROCK pathway contributes to the impact of aggregan on mitochondria distribution in growth cones.
MAG or Aggrecan exposures were performed as bath application or on coated substrates. For bath application, dissociated DRGs were cultured for 48 h and treated with 25 μg/ml of MAG-Fc (R&D Systems; 538-MG), 25 μg/ml Fc control (R&D Systems; 110-HG), or 10 μg/ml of Aggrecan (Sigma-Aldrich; A1960) for 4 h. Cultures were pretreated with either Ca^2+ chelator BAPTA-AM (3 μM; Sigma-Aldrich; A1076), ROCK inhibitor Y27632 (10 μM; Sigma-Aldrich; SCM075), HDAC6 inhibitor TubA (10 μM; R&D Systems; 6270), Thapsigargin (1 μM; Sigma-Aldrich; T9033), Rho Activator II (1 μg/ml; Cytoskeleton; CNO3), or equivalent volume DMSO 30 min before MAG-Fc, Aggrecan, or controls. For substrate-bound experiments, adult DRGs were cultured on glass bottom dishes (Greiner) that were coated with 25 μg/ml Aggrecan in addition to the laminin/poly-D-lysine substrate.

In the case of `CN1CCc2c(c3ccccc3n2Cc2ccc(C(=O)NO)cc2)C1` [TubA, tubastatin], in test [1] (retrogradely versus anterogradely moving, after TubA), the “pausing of moving mitochondria” value was “significantly increased pausing for retrogradely versus anterogradely moving mitochondria”. The “ratio of anterogradely to retrogradely moving axonal mitochondria” value in test [1] (sciatic nerve injection, 2 μl of 1.5 mM, in vivo imaging) is reported as “increased”. In addition, in test [1] (sciatic nerve injection, in vivo imaging), the “significance of antero/retrograde ratio and speed of movement vs vehicle control” value is given as “neither this nor the speed of movement showed significant differences”. Moreover, the “effect on aggrecan-induced growth cone retraction” value in test [2] was “prevented by application of TubA”.
